The text below walks through data of patent publication US5610174A, “Use of α1A -selective adrenoceptor agonists for the treatment of urinary incontinence” (priority 1995, dated 1997).

Like-named read-outs stand apart in the source and are kept apart here.

For experiment [1], the target named is T1, human histamine H2 receptor (Homo sapiens, UniProt P25021).
T1 construct: expressed in transfected cells; host or cells: COS-7 (plasmid pcEXV-H2, ATCC 75345)
The experiment can be described thus: Radioligand binding at cloned human histamine H2. Particulars: [3H]tiotidine. The protocol: Human Histamine H2 Receptor
The coding sequence of the human H2 receptor was obtained from a human placenta genomic library, and cloned into the cloning site of PCEXV-3 eukaryotic expression vector. The plasmid DNA for the H2 receptor is designated pcEXV-H2, and was deposited on Nov. 6, 1992 under ATCC Accession No. 75345. This construct was transfected into COS-7 cells by the DEAE-dextran method. Cells were harvested after 72 hours and lysed by sonication in 5 mM Tris-HCl, 5 mM EDTA, pH 7.5. The cell lysates were centrifuged at 1000 rpm for 5 min at 4° C., and the supernatant was centrifuged at 30,000×g for 20 min at 4° C. The pellet was suspended in 37.8 mM NaHPO4, 12.2 mM K2PO4, pH 7.5. The binding of the histamine H2 antagonist [3H] tiotidine (5 nM, specific activity: about 70 Ci/mM) was done in a final volume of 0.25 ml and incubated at room temperature for 60 min. Nonspecific binding was determined in the presence of 10 μM histamine. The bound radioligand was separated by filtration through GF/B filters using a cell harvester.

Another experiment has as its target T2, human α2A adrenoceptor (Homo sapiens, UniProt P08913).
T2 construct: expressed in transfected cells; host or cells: LM(tk-)
T2 sequence (P08913 1-465): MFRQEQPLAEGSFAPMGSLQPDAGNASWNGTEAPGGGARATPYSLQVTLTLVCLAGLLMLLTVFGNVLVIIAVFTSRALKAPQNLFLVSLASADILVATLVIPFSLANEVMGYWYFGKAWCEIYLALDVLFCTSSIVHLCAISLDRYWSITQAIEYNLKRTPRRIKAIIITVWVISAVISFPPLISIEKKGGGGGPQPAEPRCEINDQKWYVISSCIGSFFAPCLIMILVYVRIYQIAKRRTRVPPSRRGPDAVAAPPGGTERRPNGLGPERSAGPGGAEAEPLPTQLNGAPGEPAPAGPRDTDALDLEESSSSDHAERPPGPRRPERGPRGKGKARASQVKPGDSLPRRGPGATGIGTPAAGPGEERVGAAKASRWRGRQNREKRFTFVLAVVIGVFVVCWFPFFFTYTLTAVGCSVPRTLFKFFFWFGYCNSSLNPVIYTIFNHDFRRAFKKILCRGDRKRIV
The experiment is described as follows: Inhibition of forskolin stimulated adenylyl cyclase, α2A. It counts as cell-based. Particulars: for Emax: read-out: intrinsic activity (i.a.) α2A. As to the method:
α2 -Adrenoceptor-Mediated Inhibition of Forskolin Stimulated Adenylyl Cyclase
The agonist activity of test compounds was assayed by measuring their ability to inhibit adenylyl cyclase in cells stably transfected with each of the three cloned human α2 -adrenoceptors. LM(tk-) cells expressing the α2A - or the α2C -, as well as Y1 cells expressing the α2B -adrenoceptor were used. […] The formation of cyclic AMP was measured in cultures incubated with DMEM containing 1 mM theophylline. […] The data from concentration-response curves was fitted to a four-parameter logistic equation, by non-linear regression analysis, to determine the pEC50 and intrinsic activity.

In experiment [2] the target is T3, female dog urethra (α1-adrenoceptor) (Canis lupus, UniProt A0A8I3NK63).
T3 sequence (A0A8I3NK63 1-466): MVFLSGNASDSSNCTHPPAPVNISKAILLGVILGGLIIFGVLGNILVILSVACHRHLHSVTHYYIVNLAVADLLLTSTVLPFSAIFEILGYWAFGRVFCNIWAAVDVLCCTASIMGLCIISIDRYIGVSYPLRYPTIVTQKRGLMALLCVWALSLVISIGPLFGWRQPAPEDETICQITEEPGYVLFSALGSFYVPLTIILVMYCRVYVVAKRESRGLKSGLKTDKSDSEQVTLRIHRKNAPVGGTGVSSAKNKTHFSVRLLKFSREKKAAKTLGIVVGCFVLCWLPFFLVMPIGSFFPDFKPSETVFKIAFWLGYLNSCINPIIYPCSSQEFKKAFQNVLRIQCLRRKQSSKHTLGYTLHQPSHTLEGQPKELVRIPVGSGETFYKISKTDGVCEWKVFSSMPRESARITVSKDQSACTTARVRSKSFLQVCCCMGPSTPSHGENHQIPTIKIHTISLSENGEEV
The experiment can be described thus: Contractile study in isolated female dog urethra. As to conditions: for pEC50 Urethra: agonist contraction. An excerpt: (§1) In addition, similar studies were done using bladder neck tissue from female dogs. In order to identify the specific receptor subtype in each tissue, the pharmacological profile was compared to the profiles for these same drugs at the cloned human α1A, α1B, or α1C subtypes.
(§2) Tissue samples from the proximal urethra of male humans and male and female rabbits, as well as tissue samples from both the proximal urethra and bladder neck of male and female dogs were cut into transverse strips (3×10 mm) and suspended under 0.5 g tension in Krebs' physiological buffer at 37° C. To determine agonist potency (pEC50 )and antagonist affinity constants (pKB), concentration-effect curves to the non-selective agonist phenylepherine were constructed in the absence and in the presence of increasing concentrations of the antagonist. Up to four sequential curves were constructed in each tissue. Antagonists were allowed to equilibrate for 1h before each concentration-effect curve, and the drugs were completely washed out in between successive curves. In each experiment, one tissue served as a "time control", in which no antagonist was added so that changes in tissue sensitivity could be assessed as a function of time. […] In instances in which a single concentration of antagonist was used, pKB values were determined by the equation: […], where CR is defined as the ratio of the agonist EC50 in the presence of the antagonist to that in the absence of the antagonist.

For experiment [3], the target named is T4, human urethra (α1-adrenoceptor) (Homo sapiens, UniProt P35348).
T4 construct: Tissue samples from the proximal urethra of male humans; from tissue; host or cells: human male proximal urethra strips
T4 sequence (P35348 1-466): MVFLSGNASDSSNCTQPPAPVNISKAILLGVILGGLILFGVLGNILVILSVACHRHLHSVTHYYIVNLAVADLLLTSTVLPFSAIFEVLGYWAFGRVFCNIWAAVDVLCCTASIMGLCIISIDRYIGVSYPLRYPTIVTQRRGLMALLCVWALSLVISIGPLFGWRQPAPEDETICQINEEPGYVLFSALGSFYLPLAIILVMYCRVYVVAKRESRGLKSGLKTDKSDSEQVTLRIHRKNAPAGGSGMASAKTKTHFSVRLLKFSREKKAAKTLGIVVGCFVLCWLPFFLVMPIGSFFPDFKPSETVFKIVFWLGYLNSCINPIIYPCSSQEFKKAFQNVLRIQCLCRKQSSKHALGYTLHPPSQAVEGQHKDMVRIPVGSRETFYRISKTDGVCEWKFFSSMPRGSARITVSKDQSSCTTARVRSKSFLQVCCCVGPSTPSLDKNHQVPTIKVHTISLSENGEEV
The experiment is described as follows: Contractile study in isolated human male urethra. Particulars: versus phenylephrine-induced contraction; read-out: pKB Human Urethra Male (converted).
Source text: as §1, §2

T1 sequence (P25021 whole entry): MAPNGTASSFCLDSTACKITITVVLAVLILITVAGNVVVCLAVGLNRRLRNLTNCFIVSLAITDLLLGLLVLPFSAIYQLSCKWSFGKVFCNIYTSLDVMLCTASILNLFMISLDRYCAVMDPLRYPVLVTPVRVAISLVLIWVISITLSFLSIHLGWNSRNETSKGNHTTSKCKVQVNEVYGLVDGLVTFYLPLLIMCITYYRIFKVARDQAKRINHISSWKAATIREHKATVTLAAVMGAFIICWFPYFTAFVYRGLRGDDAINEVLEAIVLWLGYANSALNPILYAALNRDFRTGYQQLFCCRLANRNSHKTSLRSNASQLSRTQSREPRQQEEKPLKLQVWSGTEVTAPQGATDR

Take `COc1ccc(SC)c2c1C[C@@H]1[C@@H](C2)OCCN1C` (relative stereo) [SDZ NVI-085, (±)-trans-4-Methyl-6-methoxy-9-thiomethoxy-3,4,4a, 5,10,10a-hexahydro-2H-naphtho[2,3-b][1,4]oxazine]: the Ki in experiment [1] (read-out: pKi H2 (converted)) is 6310 nM. The EC50 at human α2A adrenoceptor (agonist, inhibition of forskolin stimulated adenylyl cyclase, read-out: pEC50 α2A (converted)) was more than 100000 nM. Also, on human α2A adrenoceptor, the Emax was 0%.

For the compound `CS(=O)(=O)Nc1c(O)ccc2c1CCCC2C1=NCCN1` (racemic) [Compound A-61603, (±)-N-[5-(4,5-Dihydro-1H-imidazol-2-yl)-2-hydroxy-5,6,7,8-tetra-hydronaphthalen-1-yl]methanesulfonamide], in experiment [2], the “sensitivity of the contraction to prazosin, urethra” value is listed as “highly sensitive to prazosin” and the “pEC50 Urethra” value is recorded as 6.7.

`CN[C@@H](C)[C@H](O)c1ccccc1` [(-)-ephedrine]: at human α2A adrenoceptor, the EC50 is 251 nM and the Emax was 30%.

Take `COc1ccccc1N1CCN(CCCNc2c(C)c(=O)n(C)c(=O)n2C)CC1` [Compound 5-MU]: in experiment [3], the Kb is 1.58 nM.

For `COc1cc2c(cc1OC)CN(c1cc(N)c3cc(OC)c(OC)cc3n1)CC2` [Abanoquil, 2-(6,7-Dimethoxy-3,4-dihydro-1H-isoquinolin-2-yl)-6,7-dimethoxyquinolin-4-ylamine hemifumarate hydrate], the Kb in experiment [3] was 0.251 nM.

As to `COc1ccc(OC)c(C(O)CN)c1` (racemic) [ST-1059, (±)-2-Amino-1-(2, 5 dimethoxyphenyl) ethanol], on human α2A adrenoceptor, the EC50 was 2510 nM and the Emax amounted to 20%.

As to `C[C@H](N)[C@H](O)c1ccccc1` [(-)-norephedrine], on human α2A adrenoceptor, the EC50 is 7.94 nM and the Emax came out at 50%.

On to `CNCCc1ccc(O)c(NS(C)(=O)=O)c1` [SK&F 102652], for which the “pKi H2” value in experiment [1] is 4.6. The “pEC50 α2A” value at human α2A adrenoceptor (agonist, inhibition of forskolin stimulated adenylyl cyclase) is recorded as less than 4.0. On human α2A adrenoceptor, the Emax worked out at 0%. In experiment [2], the “sensitivity of the contraction to prazosin, urethra” value was “highly sensitive to prazosin” and the “pEC50 Urethra” value came out at 6.0.
